Where two headings read alike, the source gives them in different places.
Tests used:
Assay in all cases: Sensitivity test (agar dilution), clinical isolate
[1] = system: B. cepacia 14300; type: cell-based, Burkholderia cepacia
Protocol: (§1) In addition, the antibacterial activities were tested against strains which are comparatively less sensitive to β-lactam compounds, namely clinically isolated 13 strains of Acinetobacter calcoaceticus and Acinetobacter lwoffi, clinically isolated 11 strains of Serratia marcescens, clinically isolated 12 strains of Burkholderia cepacia, and clinically isolated 15 strains of Pseudomonas aeruginosa.
(§2) According to the standard method of Japan Chemotherapeutic Society (Chemotherapy, vol. […], p 76-79 (1981)) the test was carried out using the agar dilution method. After dissolving test samples in distilled water, agar medium containing the test samples was prepared in such a manner that the final concentration became twice serial dilution by pouring serially diluted combination drug solution or a single drug solution into agar medium. As agar medium was used Mueller Hinton Agar medium (MHA). Then, each strain was cultivated over night at 37° C. in an incubator and suspended in buffered saline solution with gelatin (BSG) in the concentration of about 10^6 CFU/ml. The suspension (about 5 μl) containing test strains was inoculated to the medium containing the test samples by Micro Planter.
(§3) Each drug was weighed, and dissolved in distilled water to give a test sample. When the drugs are used in combination, two kinds of solution containing each drug were mixed so as to be various ratio of concentration to give a mixed solution. When the sample is subjected to sensitivity test, this mixed solution was diluted by twice serial dilution method.
(§4) Furthermore, when the drug is solely used, each test sample was used as it is, and diluted by twice serial dilution method from the maximum concentration to the minimum concentration.

[2] = system: B. cepacia 14427; type: cell-based, Burkholderia cepacia
Protocol: as §1, §2, §3, §4

[3] = system: B. cepacia 14428; type: cell-based, Burkholderia cepacia
Protocol: as §1, §2, §3, §4

[4] = system: B. cepacia 14429; type: cell-based, Burkholderia cepacia
Protocol: as §1, §2, §3, §4

[5] = system: B. cepacia 14430; type: cell-based, Burkholderia cepacia
Protocol: as §1, §2, §3, §4

[6] = system: B. cepacia 14607; type: cell-based, Burkholderia cepacia
Protocol: as §1, §2, §3, §4

[7] = system: B. cepacia 1892324; type: cell-based, Burkholderia cepacia
Protocol: as §1, §2, §3, §4

[8] = system: B. cepacia 1993527; type: cell-based, Burkholderia cepacia
Protocol: as §1, §2, §3, §4

[9] = system: B. cepacia 257-1; type: cell-based, Burkholderia cepacia
Protocol: as §1, §2, §3, §4

[10] = system: B. cepacia 3138; type: cell-based, Burkholderia cepacia
Protocol: as §1, §2, §3, §4

[11] = system: B. cepacia 7247; type: cell-based, Burkholderia cepacia
Protocol: as §1, §2, §3, §4

[12] = system: B. cepacia 7438; type: cell-based, Burkholderia cepacia
Protocol: as §1, §2, §3, §4

[13] = system: P. aeruginosa 13221; type: cell-based, Pseudomonas aeruginosa; conditions: read-out: MIC
Protocol: as §1, §2, §3, §4

[14] = system: P. aeruginosa 13250; type: cell-based, Pseudomonas aeruginosa
Protocol: as §1, §2, §3, §4

[15] = system: P. aeruginosa 15019; type: cell-based, Pseudomonas aeruginosa
Protocol: as §1, §2, §3, §4

C[C@H]1C=C(c2csc(SC3=C(C(=O)O)N4C(=O)[C@H]([C@@H](C)O)[C@H]4[C@H]3C)n2)CN1 [SM, (4R,5S,6S)-6-[(1R)-1-Hydroxyethyl]-4-methyl-3-({4-[(5S)-5-methyl-2,5-dihydro-1H-pyrrol-3-yl]-1,3-thiazol-2-yl}sulfanyl)-7-oxo-1-azabicyclo[3.2.0]hept-2-ene-2-carboxylic acid]
MIC ([1]; Burkholderia cepacia, 14300, Concomitant (ME:SM = 1:1)): 0.5 µg/mL | MIC ([1]; Burkholderia cepacia, 14300, Concomitant (ME:SM = 1:2)): 1 µg/mL | MIC ([1]; Burkholderia cepacia, 14300, Concomitant (ME:SM = 1:4)): 1 µg/mL | MIC ([1]; Burkholderia cepacia, 14300, Concomitant (ME:SM = 2:1)): 0.25 µg/mL | MIC ([1]; Burkholderia cepacia, 14300, alone): 2 µg/mL | MIC ([2]; Burkholderia cepacia, 14427, Concomitant (ME:SM = 1:1)): 1 µg/mL | MIC ([2]; Burkholderia cepacia, 14427, Concomitant (ME:SM = 1:2)): 1 µg/mL | MIC ([2]; Burkholderia cepacia, 14427, Concomitant (ME:SM = 1:4)): 2 µg/mL | MIC ([2]; Burkholderia cepacia, 14427, Concomitant (ME:SM = 2:1)): 0.5 µg/mL | MIC ([2]; Burkholderia cepacia, 14427, alone): 8 µg/mL | MIC ([3]; Burkholderia cepacia, 14428, Concomitant (ME:SM = 1:1)): 1 µg/mL | MIC ([3]; Burkholderia cepacia, 14428, Concomitant (ME:SM = 1:2)): 2 µg/mL | MIC ([3]; Burkholderia cepacia, 14428, Concomitant (ME:SM = 1:4)): 2 µg/mL | MIC ([3]; Burkholderia cepacia, 14428, Concomitant (ME:SM = 2:1)): 0.5 µg/mL | MIC ([3]; Burkholderia cepacia, 14428, alone): 8 µg/mL | MIC ([4]; Burkholderia cepacia, 14429, Concomitant (ME:SM = 1:1)): 1 µg/mL | MIC ([4]; Burkholderia cepacia, 14429, Concomitant (ME:SM = 1:2)): 1 µg/mL | MIC ([4]; Burkholderia cepacia, 14429, Concomitant (ME:SM = 1:4)): 2 µg/mL | MIC ([4]; Burkholderia cepacia, 14429, Concomitant (ME:SM = 2:1)): 0.5 µg/mL | MIC ([4]; Burkholderia cepacia, 14429, alone): 4 µg/mL | MIC ([5]; Burkholderia cepacia, 14430, Concomitant (ME:SM = 1:1)): 1 µg/mL | MIC ([5]; Burkholderia cepacia, 14430, Concomitant (ME:SM = 1:2)): 2 µg/mL | MIC ([5]; Burkholderia cepacia, 14430, Concomitant (ME:SM = 1:4)): 8 µg/mL | MIC ([5]; Burkholderia cepacia, 14430, Concomitant (ME:SM = 2:1)): 1 µg/mL | MIC ([5]; Burkholderia cepacia, 14430, alone): 8 µg/mL | MIC ([6]; Burkholderia cepacia, 14607, Concomitant (ME:SM = 1:1)): 1 µg/mL | MIC ([6]; Burkholderia cepacia, 14607, Concomitant (ME:SM = 1:2)): 1 µg/mL | MIC ([6]; Burkholderia cepacia, 14607, Concomitant (ME:SM = 1:4)): 2 µg/mL | MIC ([6]; Burkholderia cepacia, 14607, Concomitant (ME:SM = 2:1)): 0.5 µg/mL | MIC ([6]; Burkholderia cepacia, 14607, alone): 4 µg/mL | MIC ([7]; Burkholderia cepacia, 1892324, Concomitant (ME:SM = 1:1)): 1 µg/mL | MIC ([7]; Burkholderia cepacia, 1892324, Concomitant (ME:SM = 1:2)): 2 µg/mL | MIC ([7]; Burkholderia cepacia, 1892324, Concomitant (ME:SM = 1:4)): 2 µg/mL | MIC ([7]; Burkholderia cepacia, 1892324, Concomitant (ME:SM = 2:1)): 1 µg/mL | MIC ([7]; Burkholderia cepacia, 1892324, alone): 4 µg/mL | MIC ([8]; Burkholderia cepacia, 1993527, Concomitant (ME:SM = 1:1)): 1 µg/mL | MIC ([8]; Burkholderia cepacia, 1993527, Concomitant (ME:SM = 1:2)): 2 µg/mL | MIC ([8]; Burkholderia cepacia, 1993527, Concomitant (ME:SM = 1:4)): 8 µg/mL | MIC ([8]; Burkholderia cepacia, 1993527, Concomitant (ME:SM = 2:1)): 1 µg/mL | MIC ([8]; Burkholderia cepacia, 1993527, alone): 8 µg/mL | MIC ([9]; Burkholderia cepacia, 2571, Concomitant (ME:SM = 1:1)): 0.5 µg/mL | MIC ([9]; Burkholderia cepacia, 2571, Concomitant (ME:SM = 1:2)): 0.5 µg/mL | MIC ([9]; Burkholderia cepacia, 2571, Concomitant (ME:SM = 1:4)): 1 µg/mL | MIC ([9]; Burkholderia cepacia, 2571, Concomitant (ME:SM = 2:1)): 0.25 µg/mL | MIC ([9]; Burkholderia cepacia, 2571, alone): 4 µg/mL | MIC ([10]; Burkholderia cepacia, 3138, Concomitant (ME:SM = 1:1)): 1 µg/mL | MIC ([10]; Burkholderia cepacia, 3138, Concomitant (ME:SM = 1:2)): 2 µg/mL | MIC ([10]; Burkholderia cepacia, 3138, Concomitant (ME:SM = 1:4)): 8 µg/mL | MIC ([10]; Burkholderia cepacia, 3138, Concomitant (ME:SM = 2:1)): 1 µg/mL | MIC ([10]; Burkholderia cepacia, 3138, alone): 8 µg/mL | MIC ([11]; Burkholderia cepacia, 7247, Concomitant (ME:SM = 1:1)): 2 µg/mL | MIC ([11]; Burkholderia cepacia, 7247, Concomitant (ME:SM = 1:2)): 4 µg/mL | MIC ([11]; Burkholderia cepacia, 7247, Concomitant (ME:SM = 1:4)): 8 µg/mL | MIC ([11]; Burkholderia cepacia, 7247, Concomitant (ME:SM = 2:1)): 1 µg/mL | MIC ([11]; Burkholderia cepacia, 7247, alone): 16 µg/mL | MIC ([12]; Burkholderia cepacia, 7438, Concomitant (ME:SM = 1:1)): 2 µg/mL | MIC ([12]; Burkholderia cepacia, 7438, Concomitant (ME:SM = 1:2)): 2 µg/mL | MIC ([12]; Burkholderia cepacia, 7438, Concomitant (ME:SM = 1:4)): 8 µg/mL | MIC ([12]; Burkholderia cepacia, 7438, Concomitant (ME:SM = 2:1)): 1 µg/mL | MIC ([12]; Burkholderia cepacia, 7438, alone): 16 µg/mL | MIC ([13]; Pseudomonas aeruginosa, 13221, Concomitant (ME:SM = 1:1)): 0.125 µg/mL | MIC ([13]; Pseudomonas aeruginosa, 13221, Concomitant (ME:SM = 1:2)): 0.25 µg/mL | MIC ([13]; Pseudomonas aeruginosa, 13221, Concomitant (ME:SM = 1:4)): 0.25 µg/mL | MIC ([13]; Pseudomonas aeruginosa, 13221, Concomitant (ME:SM = 2:1)): 0.031 µg/mL | MIC ([13]; Pseudomonas aeruginosa, 13221, alone): 16 µg/mL | MIC ([14]; Pseudomonas aeruginosa, 13250, Concomitant (ME:SM = 1:1)): 0.5 µg/mL | MIC ([14]; Pseudomonas aeruginosa, 13250, Concomitant (ME:SM = 1:2)): 0.5 µg/mL | MIC ([14]; Pseudomonas aeruginosa, 13250, Concomitant (ME:SM = 1:4)): 2 µg/mL | MIC ([14]; Pseudomonas aeruginosa, 13250, Concomitant (ME:SM = 2:1)): 0.25 µg/mL | MIC ([14]; Pseudomonas aeruginosa, 13250, alone): 8 µg/mL | MIC ([15]; Pseudomonas aeruginosa, 15019, Concomitant (ME:SM = 1:1)): 4 µg/mL | MIC ([15]; Pseudomonas aeruginosa, 15019, Concomitant (ME:SM = 1:2)): 8 µg/mL | MIC ([15]; Pseudomonas aeruginosa, 15019, Concomitant (ME:SM = 1:4)): 8 µg/mL | MIC ([15]; Pseudomonas aeruginosa, 15019, Concomitant (ME:SM = 2:1)): 2 µg/mL | MIC ([15]; Pseudomonas aeruginosa, 15019, alone): 16 µg/mL

From patent publication US20090018111A1, “Novel Antimicrobial Medicament” (priority 2004, published 2009)
